Measurements as given in publication PMC6985109, “Cellular apoptosis and necrosis as therapeutic targets for novel Eugenol Tosylate Congeners against Candida albicans” (Scientific Reports, 2020).
Values after ≈ are worked out from the molar mass of the structure shown.

Legend:
Candida albicans 4179 = test: Broth microdilution antifungal susceptibility (MIC/MFC); type: cell-based; conditions: strain 4179, FLC susceptible
Experimental: (§1) In this study, 10 clinical Candida albicans isolates, comprising of 5 fluconazole susceptible and 5 fluconazole resistant, were used. C. albicans SC5314 was also used as a control laboratory strain. Clinical strains used in this study were stored at −80 °C supplemented with 20% glycerol in the Department of Clinical Microbiology and Infectious Diseases, University of the Witwatersrand, Johannesburg and were previously collected under the ethical clearance number M000402, obtained from the Human Research Ethics Committee, University of the Witwatersrand. For experimental purpose each strain from glycerol stock was recovered on Sabouraud Dextrose (SDA) agar plates at 37 °C for 24 h.
(§2) Minimum Inhibitory Concentration (MIC) and Minimum Fungicidal Concentrations (MFC) of all newly synthesized eugenol-tosylate congeners (ETC-1–ETC-7) against C. albicans strains were determined by broth microdilution assay in accordance with the approved guidelines described by Clinical and Laboratory Standards Institute (CLSI) guidelines M27-A[38]. The test compounds were prepared in 1% DMSO to a stock concentration of 8192 µg/ml. Two-fold dilutions of test compounds (100 µL) were prepared in 96-well flat-bottom microtiter plates, inoculated with 100 µl of inoculum (1 × 10^6 cells/mL) and incubated at 37 °C for 24 hours. In every set of experiment, positive control (fluconazole), negative vehicle control (1% DMSO) and culture control (media and cells only) were included. MIC’s were determined visibly as the lowest concentration of the test compounds that inhibited growth of test organism. To determine MFC, each well without visible growth was sub-cultured onto agar plates. Concentration in the first well with no growth on plate was taken as MFC. […] The experiment was performed in triplicate to validate the results.

Candida albicans 4324 = test: as above; type: cell-based; conditions: strain 4324, FLC resistant
Experimental: as §1, §2

Candida albicans 4175 = test: as above; type: cell-based; conditions: Candida albicans, strain 4175, FLC susceptible
Experimental: as §1, §2

Candida albicans 4180 = test: as above; type: cell-based; conditions: strain 4180, FLC susceptible
Experimental: as §1, §2

Candida albicans 4106 = test: as above; type: cell-based; conditions: strain 4106, FLC resistant
Experimental: as §1, §2

Candida albicans 4135 = test: as above; type: cell-based; conditions: strain 4135, FLC resistant
Experimental: as §1, §2

Candida albicans 4576 = test: as above; type: cell-based; conditions: strain 4576, FLC susceptible
Experimental: as §1, §2

Candida albicans SC5314 = test: as above; type: cell-based; conditions: SC5314, FLC susceptible
Experimental: as §1, §2

Candida albicans 4563 = test: as above; type: cell-based; conditions: strain 4563, FLC susceptible
Experimental: as §1, §2

Candida albicans 5112 = test: as above; type: cell-based; conditions: strain 5112, FLC resistant
Experimental: as §1, §2

Candida albicans 4122 = test: as above; type: cell-based; conditions: strain 4122, FLC resistant
Experimental: as §1, §2

[1] = system: fluconazole susceptible and resistant C. albicans strains; test: Broth microdilution antifungal susceptibility, ranges over strains; type: cell-based; conditions: Candida albicans; over the tested C. albicans strains
Experimental: as §1, §2

[2] = system: cytochrome c oxidase activity in C. albicans SC5314, C. albicans 4175 and C. albicans 5112; test: Cytochrome c oxidase activity in mitochondria of treated cells; type: cell-based, Candida albicans; conditions: 3 h, range over three strains
Experimental: To study the effect of test compounds on apoptotic markers protoplasts were prepared as described previously, with modifications. Briefly, mid-exponential phase cells were harvested and exposed to various concentrations of test compounds (0.5 × MIC, 1 × MIC and 2×MIC) for 3 h. The cells were then washed twice with protoplast buffer- I (1 M sorbitol, 50 mM tris base, 10 mM MgCl2 and 30 mM DTT) and incubated in the same buffer for 15 minutes at 25 °C, followed by centrifugation at 1500 rpm for 5 minutes. Supernatant was removed and cells were incubated with buffer- II (1 M sorbitol, 50 mM tris base, 10 mM MgCl2 and 1 mM DTT) supplemented with lyticase enzyme (≥1 µg/mL) used to digest the cell wall for 1 h at 25 °C. Buffer- II were removed by centrifugation and then cells were incubated with buffer- III (1 M sorbitol, 50 mM tris base and 10 mM MgCl2) for 20 minutes at room temperature. After the incubation cells were again centrifuged at 1500 rpm for 5 minutes and supernatant was discarded. Protoplasts then finally washed once with PBS and re-suspended in the same for further use. In each washing steps the volume of these protoplast buffers were 5 times to cell volume with pH 7.4.
After the cells were exposed to different concentrations of test compounds as mentioned above, mitochondria of the cells were isolated using Yeast Mitochondria Isolation Kit- MITOISO3 (Sigma – Aldrich St. Louis, MO, U.S.A.). Cytochrome c oxidase assay kit (ScienCell, Cat. No. 8278, CA, USA) was used to detect the cytochrome c oxidase activity. In all procedures, kits were used according to the manufacturer’s instructions. Briefly, prepared spheroplasts were followed by homogenization to release the mitochondria. Homogenate was centrifuged in 1X storage buffer (1 ml) at 6,500 × g for 10 minutes at 2–8 °C. […] Protein concentration was determined by using TCA Lowry method. […] Immediately change in absorbance of cytochrome c was measured at 550 nm on a kinetic program (duration 30 seconds, interval 5 seconds) by using UV-1800 SHIMADZU spectrophotometer (Shimadzu Corporation, Japan).

For `C=CCc1ccc(OS(=O)(=O)c2ccc(C(=O)O)cc2)c(OC)c1` [ETC-7, 4-{[2-methoxy-4-(prop-2-en-1-yl)phenoxy]sulfonyl}benzoic acid], the MFC (Candida albicans 4179) was 4 µg/mL (≈ 11.5 µM), the MIC (Candida albicans 4179; 37 °C, 24 h) was 2 µg/mL (≈ 5.74 µM) and the MFC (Candida albicans 4324) was 8 µg/mL (≈ 23 µM). For the same compound, the MIC (Candida albicans 4324; 37 °C, 24 h) was 4 µg/mL (≈ 11.5 µM), the MFC (Candida albicans 4175) was 2 µg/mL (≈ 5.74 µM) and the MIC (Candida albicans 4175; 37 °C, 24 h, read-out: MIC) was 1 µg/mL (≈ 2.87 µM). The MFC (Candida albicans 4180) was 8 µg/mL (≈ 23 µM), the MIC (Candida albicans 4180; 37 °C, 24 h) was 4 µg/mL (≈ 11.5 µM) and the MFC (Candida albicans 4106) was 4 µg/mL (≈ 11.5 µM). For the same compound, the MIC (Candida albicans 4106; 37 °C, 24 h) was 2 µg/mL (≈ 5.74 µM), the MFC (Candida albicans 4135) was 8 µg/mL (≈ 23 µM) and the MIC (Candida albicans 4135; 37 °C, 24 h) was 4 µg/mL (≈ 11.5 µM). The MFC (Candida albicans 4576) was 4 µg/mL (≈ 11.5 µM), the MIC (Candida albicans 4576; 37 °C, 24 h) was 2 µg/mL (≈ 5.74 µM) and the MFC (Candida albicans SC5314) was 2 µg/mL (≈ 5.74 µM). It also gave an MIC (Candida albicans SC5314; 37 °C, 24 h) of 1 µg/mL (≈ 2.87 µM), an MFC (Candida albicans 4563) of 2 µg/mL (≈ 5.74 µM) and an MIC (Candida albicans 4563; 37 °C, 24 h) of 1 µg/mL (≈ 2.87 µM). The MFC (Candida albicans 5112) was 16 µg/mL (≈ 45.9 µM), the MIC (Candida albicans 5112; 37 °C, 24 h) was 8 µg/mL (≈ 23 µM) and the MFC (Candida albicans 4122) was 16 µg/mL (≈ 45.9 µM). The MIC (Candida albicans 4122; 37 °C, 24 h) was 8 µg/mL (≈ 23 µM), the MFC [1] was 2 to 8 µg/mL (≈ 5.74 to 23 µM) and the MIC [1] was 1 to 4 µg/mL (≈ 2.87 to 11.5 µM). The “cytochrome c oxidase enzyme activity decreased up to” value ([2]; 0.5 × MIC) was 11.33–18.07%, the “cytochrome c oxidase enzyme activity decreased up to” value ([2]; 1 × MIC) was 9.20–13.92% and the “cytochrome c oxidase enzyme activity decreased up to” value ([2]; 2 × MIC) was 5.21–9.88%.
